Experiments:
SHRs = assay: In vivo hypotensive activity in SHRs, DSI implant-type remote blood pressure measurement; parameters: species or system rats; details: male SHRs, 10 mg/kg po, monitored 24 hours
Method: The in vivo hypotensive activity assay was conducted according to DSI experimental procedure with reference to page 56 of WO 2009/056934 A1. The agents to be tested, lercanidipine, barnidipine, amlodipine, azelnidipine, efonidipine and manidipine, were accurately weighed. Each agent was dissolved in DMSO. To the resulting solution was added 50% of the corresponding volume of PEG400 so that the final concentration of each agent was 1 mg/ml, and the final concentration of DMSO was 3%. […] Each compound was dissolved in DMSO. […] The compound to be tested, Compound 15, was accurately weighed. This compound was dissolved in DMSO. […] The compound to be tested, Compound 16 (optical activity)+108.34° and Compound 17 (optical activity optical activity)+36.4°, were accurately weighed. […] The test for hypotensive effect: Male SHRs were subjected to an abdominal aorta implantation using an implant, and used in the test after 7-10 days of recovery. The administration was an intragastric administration. One hour before the administration, the measured blood pressure was used as the pre-administration basic blood pressure value. After the administration, SHRs, allowed free access to the diet, were continuously monitored with a DSI implant-type blood pressure remote measurement system for 24 hours.

[1] = tested on: SHRs (spontaneous hypertensive rats); assay: In vivo hypotensive activity in SHRs, tail-pinch method; details: male SHRs, 10 mg/kg po; for Max ΔMAP (mmHg ± SEM): measured 1-24 h after administration
Method: The in vivo hypotensive activity assay was conducted according to the tail-pinch method with reference to Folia pharmacol. Japon. 97, 115-126 (1991).
The agents to be tested, lercanidipine, barnidipine, amlodipine, azelnidipine, efonidipine and manidipine, were accurately weighed respectively. Each agent was dissolved in DMSO. To the resulting solution was added 50% of the corresponding volume of PEG400 so that the final concentration of each agent was 1 mg/ml, and the final concentration of DMSO was 3%.
The compounds to be tested, Compound 18, Compound 21, Compound 22, Compound 23, and Compound 26, were accurately weighed respectively. Each compound was dissolved in DMSO. To the resulting solution was added 50% of the corresponding volume of PEG400 so that the final concentration of each compound was 1 mg/ml, and the final concentration of DMSO was 3%.
The compounds to be tested, Compound 19 and Compound 20, were accurately weighed respectively. Each compound was suspended in 0.5% MC so that the final concentration of each compound was 1 mg/ml.
The test for hypotensive effect: Male SHRs (spontaneous hypertensive rats) were randomly allocated into a control group and an administration group. The administration was an intragastric administration. One hour before the administration, the measured blood pressure was used as the pre-administration basic blood pressure value. After the administration, the contractive pressure, the heart rate and the mean arterial pressure of SHRs at six time points, i.e. 1, 2, 4, 6, 8 and 24 hours after the administration, were measured with a Softron BP-98A non-invasive blood pressure instrument respectively.

Human Cav3.2 = Human Cav3.2 (Homo sapiens, UniProt O95180); assay: T-type calcium ion channel inhibition, FLIPR method; type: cell-based; details: Human Cav3.2 in stable HEK-293 cells, FLIPR Calcium 4 No-Wash kit
Method: T-type tests for Compound 19 and Compound 20 were assigned to Chan Test Corporation, and conducted according to the FLIPR experimental procedure as follows.
It was done with reference to the method disclosed on page 48 of WO 2009/056934 A1.
Samples were weighed accurately and diluted in a 3-fold stepwise dilution so that the final concentrations were as follows: 100 μM, 30 μM, 10 μM, 3 μM, 1 μM, 0.3 μM, 0.1 μM, 0.03 μM, 0.01 μM, 0.003 μM.
T-type test: Human Cav3.2 was cloned in stable HEK-293 cells, and then the operation was conducted with FLIPR Calcium 4 No-Wash kit. The cell medium was removed. To an HEPES solution free of calcium ion was added 20 μL dye to dye for 30 minutes at a temperature of 37° C. This buffer free of calcium ion included NaCl, 137 mM; KCl, 0.5 mM; MgCl2 mM, 1 mM; HEPES, 10 mM; glucose, 10 mM. The pH value was adjusted to 7.4 with NaOH. After 30 minutes, the buffer was placed at room temperature for 30 minutes. Then 5 μL of compound to be tested, solvent or blank control were added. The compound was formulated with a buffer containing calcium ion, said buffer including KCl, 135 mM; CaCl2, 10.8 mM; MgCl2, 1 mM; HEPES, 10 mM; glucose, 10 mM. The collected fluorescence values were analyzed and the inhibition ratios were calculated.

[2] = biological target: L-type calcium ion channels (Cavia porcellus, UniProt O35505); assay: L-type calcium ion channel inhibition, whole cell patch-clamp (electrophysiological method); type: cell-based; details: left ventricle muscle cells of guinea pigs, room temperature
Source text: 2. Test for L- and T-Type Calcium Ion Channel Inhibitors
This experiment was assigned to HD Biosciences Corporation (Shanghai) and conducted with an electrophysiological method.
It was done with reference to the method as disclosed by Jung-Ha Lee, et. al., “Identification of T-Type α1H Ca^2+ Channels (Cav3.2) in Major Pelvic Ganglion Neurons”. J Neurophysiol 87:2844-2850, 2002.
Test samples were weighed accurately and diluted in a 3-fold stepwise dilution so that the final concentrations were as follows:
L-type test: Left ventricle muscle cells were separated from guinea pigs. The cells were used in the experiment in eight hours. The ionic current of a single cell was recorded by applying the whole cell patch-clamp technique at room temperature, wherein the clamp current was −80 mV, and the pulse interval was 10 s. The inward current (the activiation was started from 0 mV) is the L-type calcium current (ICa,L).
The electrode inner liquid (mM): CsCl 120, TEA-Cl 20, CaCl2 1, EGTA-CsOH 11, Hepes 10, Mg-ATP 5, pH7.3;
The electrode outer liquid (mM): NaCl 135, CsCl 5.4, CaCl2 1.8, MgCl2 1, Hepes 5, glucose 10, pH7.4.

Sequence of Human Cav3.2 (O95180 whole entry): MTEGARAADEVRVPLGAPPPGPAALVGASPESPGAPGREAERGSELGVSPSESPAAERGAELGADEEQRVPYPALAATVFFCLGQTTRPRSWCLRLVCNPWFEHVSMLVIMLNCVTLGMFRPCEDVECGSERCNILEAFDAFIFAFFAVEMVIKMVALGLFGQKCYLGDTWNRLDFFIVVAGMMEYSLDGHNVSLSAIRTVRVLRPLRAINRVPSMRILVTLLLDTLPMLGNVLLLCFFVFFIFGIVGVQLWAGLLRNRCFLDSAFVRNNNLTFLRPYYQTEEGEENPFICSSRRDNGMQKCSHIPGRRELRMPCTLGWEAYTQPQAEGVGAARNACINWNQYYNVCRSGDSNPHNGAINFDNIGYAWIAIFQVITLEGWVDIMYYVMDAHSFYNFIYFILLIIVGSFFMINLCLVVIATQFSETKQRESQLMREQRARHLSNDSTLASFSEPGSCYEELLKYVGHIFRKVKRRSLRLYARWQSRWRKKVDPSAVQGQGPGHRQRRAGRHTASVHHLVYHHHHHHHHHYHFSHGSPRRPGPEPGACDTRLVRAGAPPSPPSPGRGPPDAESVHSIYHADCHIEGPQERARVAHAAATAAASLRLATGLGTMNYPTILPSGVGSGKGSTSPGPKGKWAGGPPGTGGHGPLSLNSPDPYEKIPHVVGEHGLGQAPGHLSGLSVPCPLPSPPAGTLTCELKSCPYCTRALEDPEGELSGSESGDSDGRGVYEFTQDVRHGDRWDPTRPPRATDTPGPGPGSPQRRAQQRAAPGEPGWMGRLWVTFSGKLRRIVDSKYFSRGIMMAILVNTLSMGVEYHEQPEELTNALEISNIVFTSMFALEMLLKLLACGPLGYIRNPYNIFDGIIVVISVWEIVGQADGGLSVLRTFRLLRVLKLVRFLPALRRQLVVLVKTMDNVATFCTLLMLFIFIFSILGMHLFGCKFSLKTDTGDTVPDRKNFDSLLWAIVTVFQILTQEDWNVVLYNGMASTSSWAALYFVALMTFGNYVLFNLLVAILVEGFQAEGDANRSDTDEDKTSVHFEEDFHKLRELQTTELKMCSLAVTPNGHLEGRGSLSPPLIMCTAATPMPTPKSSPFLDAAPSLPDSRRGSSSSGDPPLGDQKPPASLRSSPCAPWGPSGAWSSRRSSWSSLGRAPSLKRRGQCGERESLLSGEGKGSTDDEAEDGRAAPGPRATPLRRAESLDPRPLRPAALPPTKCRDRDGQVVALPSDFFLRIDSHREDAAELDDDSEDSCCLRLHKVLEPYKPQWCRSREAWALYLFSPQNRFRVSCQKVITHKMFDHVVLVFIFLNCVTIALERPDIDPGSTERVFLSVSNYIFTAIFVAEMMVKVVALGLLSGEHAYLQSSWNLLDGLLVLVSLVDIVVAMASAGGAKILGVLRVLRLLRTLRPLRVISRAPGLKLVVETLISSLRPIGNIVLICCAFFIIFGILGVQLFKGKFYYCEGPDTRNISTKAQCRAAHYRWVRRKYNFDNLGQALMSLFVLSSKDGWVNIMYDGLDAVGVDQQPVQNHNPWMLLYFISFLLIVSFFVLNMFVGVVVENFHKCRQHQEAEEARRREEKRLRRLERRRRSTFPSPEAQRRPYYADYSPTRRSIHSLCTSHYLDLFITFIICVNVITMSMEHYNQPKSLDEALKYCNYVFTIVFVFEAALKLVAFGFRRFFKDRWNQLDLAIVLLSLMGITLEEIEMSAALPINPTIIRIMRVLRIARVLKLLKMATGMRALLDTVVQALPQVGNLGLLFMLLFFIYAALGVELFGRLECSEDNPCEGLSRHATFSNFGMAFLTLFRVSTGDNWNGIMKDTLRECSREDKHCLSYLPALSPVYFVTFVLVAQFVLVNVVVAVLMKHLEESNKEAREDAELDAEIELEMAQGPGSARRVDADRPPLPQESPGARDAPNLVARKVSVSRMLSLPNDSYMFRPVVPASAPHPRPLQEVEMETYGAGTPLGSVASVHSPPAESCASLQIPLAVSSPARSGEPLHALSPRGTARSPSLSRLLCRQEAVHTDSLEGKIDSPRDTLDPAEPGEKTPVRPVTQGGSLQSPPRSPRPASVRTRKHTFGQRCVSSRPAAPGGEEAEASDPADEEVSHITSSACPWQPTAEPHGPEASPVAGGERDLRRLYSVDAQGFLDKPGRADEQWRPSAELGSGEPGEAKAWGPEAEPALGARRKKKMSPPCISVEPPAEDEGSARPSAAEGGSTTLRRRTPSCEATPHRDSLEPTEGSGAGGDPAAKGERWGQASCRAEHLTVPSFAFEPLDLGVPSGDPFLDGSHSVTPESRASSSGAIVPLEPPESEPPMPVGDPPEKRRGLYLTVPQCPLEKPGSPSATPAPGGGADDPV
Sequence of L-type calcium ion channels (O35505 whole entry): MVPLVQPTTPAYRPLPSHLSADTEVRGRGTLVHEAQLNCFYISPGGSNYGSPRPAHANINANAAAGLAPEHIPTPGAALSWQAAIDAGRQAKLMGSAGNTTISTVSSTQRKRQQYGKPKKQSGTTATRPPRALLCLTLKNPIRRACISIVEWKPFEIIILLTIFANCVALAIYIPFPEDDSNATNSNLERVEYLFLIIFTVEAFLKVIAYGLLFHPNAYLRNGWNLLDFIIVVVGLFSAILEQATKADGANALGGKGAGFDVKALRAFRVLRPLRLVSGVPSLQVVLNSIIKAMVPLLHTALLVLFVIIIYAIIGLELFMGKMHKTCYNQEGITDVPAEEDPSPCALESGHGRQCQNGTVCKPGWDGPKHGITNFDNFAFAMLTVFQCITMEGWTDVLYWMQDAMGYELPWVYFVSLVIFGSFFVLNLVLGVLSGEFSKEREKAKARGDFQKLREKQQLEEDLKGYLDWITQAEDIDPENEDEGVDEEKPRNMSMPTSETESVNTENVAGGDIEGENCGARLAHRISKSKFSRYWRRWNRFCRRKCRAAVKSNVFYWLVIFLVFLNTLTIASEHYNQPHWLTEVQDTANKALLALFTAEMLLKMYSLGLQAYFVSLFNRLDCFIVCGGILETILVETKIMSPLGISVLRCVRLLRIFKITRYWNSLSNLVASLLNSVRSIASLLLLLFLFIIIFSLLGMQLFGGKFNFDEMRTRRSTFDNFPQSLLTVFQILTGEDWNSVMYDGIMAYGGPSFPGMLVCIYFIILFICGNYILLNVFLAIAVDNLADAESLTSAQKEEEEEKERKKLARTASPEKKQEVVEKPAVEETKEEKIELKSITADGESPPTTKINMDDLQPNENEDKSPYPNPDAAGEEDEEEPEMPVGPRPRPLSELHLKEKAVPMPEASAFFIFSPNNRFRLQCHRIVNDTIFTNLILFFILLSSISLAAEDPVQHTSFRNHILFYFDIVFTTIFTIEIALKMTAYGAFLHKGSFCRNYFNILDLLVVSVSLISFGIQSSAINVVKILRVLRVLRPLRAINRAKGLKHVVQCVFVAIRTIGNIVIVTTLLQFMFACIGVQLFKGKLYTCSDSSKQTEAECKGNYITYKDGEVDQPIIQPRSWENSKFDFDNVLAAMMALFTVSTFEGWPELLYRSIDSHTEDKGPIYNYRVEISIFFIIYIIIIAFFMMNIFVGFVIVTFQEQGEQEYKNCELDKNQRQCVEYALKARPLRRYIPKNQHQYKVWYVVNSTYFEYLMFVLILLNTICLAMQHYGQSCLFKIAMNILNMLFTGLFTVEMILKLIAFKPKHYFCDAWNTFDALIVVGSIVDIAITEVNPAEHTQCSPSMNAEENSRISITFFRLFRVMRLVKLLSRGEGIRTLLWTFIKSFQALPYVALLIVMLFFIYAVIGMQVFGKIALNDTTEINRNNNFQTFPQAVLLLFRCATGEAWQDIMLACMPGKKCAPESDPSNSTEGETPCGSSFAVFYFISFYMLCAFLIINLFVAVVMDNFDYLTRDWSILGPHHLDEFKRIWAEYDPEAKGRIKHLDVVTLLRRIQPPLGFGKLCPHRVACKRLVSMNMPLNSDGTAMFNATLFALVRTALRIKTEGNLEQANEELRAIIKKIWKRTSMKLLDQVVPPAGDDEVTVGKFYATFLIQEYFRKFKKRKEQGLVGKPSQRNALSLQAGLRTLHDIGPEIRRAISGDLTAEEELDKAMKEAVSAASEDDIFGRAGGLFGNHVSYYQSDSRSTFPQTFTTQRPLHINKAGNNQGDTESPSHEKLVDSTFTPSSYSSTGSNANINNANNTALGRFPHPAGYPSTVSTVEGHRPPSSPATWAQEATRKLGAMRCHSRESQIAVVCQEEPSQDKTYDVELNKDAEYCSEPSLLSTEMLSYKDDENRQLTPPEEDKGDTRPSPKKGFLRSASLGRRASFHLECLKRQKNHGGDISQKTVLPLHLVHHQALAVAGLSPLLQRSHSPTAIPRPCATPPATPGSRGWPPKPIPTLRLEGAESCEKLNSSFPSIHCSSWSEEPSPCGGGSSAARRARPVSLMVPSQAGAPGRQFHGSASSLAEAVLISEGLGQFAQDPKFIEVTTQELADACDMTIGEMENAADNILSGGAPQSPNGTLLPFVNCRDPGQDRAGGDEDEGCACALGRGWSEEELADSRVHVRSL

IC50 (Human Cav3.2) [µM] | IC50 [2] [µM] | Compound | Max ΔMAP (mmHg ± SEM) (SHRs) [mmHg] | ΔMAP > 20 (mmHg) Duration time of action (SHRs) [h] | ΔMAP > 20 (mmHg) Duration time of action [1] [h] | Max ΔMAP (mmHg ± SEM) [1] [mmHg]
 |  | COC(=O)C1=C(C)NC(C)=C(C(=O)OC2(C)CCN(Cc3ccccc3)C2)C1c1cccc([N+](=O)[O-])c1 (stereo not shown) [Compound 1, 3-(1-benzyl-3-methylpyrrolidin-3-yl) 5-methyl 2,6-dimethyl-4-(3-nitrophenyl)-1,4-dihydropyridine-3,5-dicarboxylate] | 47 ± 7 | 6 |  | 
 |  | COC(=O)C1=C(C)NC(C)=C(C(=O)OC2(C)CCN(CCC(c3ccccc3)c3ccccc3)C2)C1c1cccc([N+](=O)[O-])c1 (stereo not shown) [Compound 2, 3-[1-(3,3-diphenylpropyl)-3-methylpyrrolidin-3-yl] 5-methyl 2,6-dimethyl-4-(3-nitrophenyl)-1,4-dihydropyridine-3,5-dicarboxylate] | 53 ± 7 | 16 |  | 
 |  | COC(=O)C1=C(C)NC(C)=C(C(=O)OC2(C)CCN(C(c3ccccc3)c3ccccc3)C2)[C@H]1c1cccc([N+](=O)[O-])c1 (stereo partly drawn) [Compound 26, (4S)-3-[1-diphenylmethyl-3-methylpyrrolidin-3-yl]5-methyl 2,6-dimethyl-4-(3-nitrophenyl)-1,4-dihydropyridine-3,5-dicarboxylate] |  |  | 24 | 55 ± 13
 |  | COC(=O)C1=C(C)NC(C)=C(C(=O)OCCN2CCN(C(c3ccccc3)c3ccccc3)CC2)C1c1cccc([N+](=O)[O-])c1 (stereo not shown) [manidipine, reference compound] |  |  | 23 | 74 ± 5
66.9 |  | COC(=O)C1=C(C)NC(C)=C(C(=O)O[C@@]2(C)CCN(CC(c3ccccc3)c3ccccc3)C2)[C@H]1c1cccc([N+](=O)[O-])c1 [Compound 20, (S)-3-[(S)-1-(2,2-diphenylethyl)-3-methylpyrrolidin-3-yl] 5-methyl 2,6-dimethyl-4-(3-nitrophenyl)-1,4-dihydropyridine-3,5-dicarboxylate] |  |  | 24 | 80 ± 14
 | 1.28 | COC(=O)C1=C(C)NC(C)=C(C(=O)OC2(C)CCN(CCC(c3ccccc3)c3ccccc3)C2)[C@H]1c1cccc([N+](=O)[O-])c1 (stereo partly drawn) [Compound 15, (4S)-3-[1-(3,3-diphenylpropyl)-3-methylpyrrolidin-3-yl] 5-methyl 2,6-dimethyl-4-(3-nitrophenyl)-1,4-dihydropyridine-3,5-dicarboxylate] | 56 ± 1 | 14 |  | 
 | 1.39 | CC1=C(C(=O)OC(C)C)C(c2cccc([N+](=O)[O-])c2)C(C(=O)OC2CN(C(c3ccccc3)c3ccccc3)C2)=C(N)N1 (stereo not shown) [azelnidipine, reference compound] | 40 ± 5 | 11 | 24 | 79 ± 13
 | 0.59 | COC(=O)C1=C(C)NC(C)=C(C(=O)OC2(C)CCN(CCC(c3ccccc3)c3ccccc3)C2)[C@@H]1c1cccc([N+](=O)[O-])c1 (stereo partly drawn) [Compound 14, (4R)-3-[1-(3,3-diphenylpropyl)-3-methylpyrrolidin-3-yl] 5-methyl 2,6-dimethyl-4-(3-nitrophenyl)-1,4-dihydropyridine-3,5-dicarboxylate] |  |  |  | 
 |  | COC(=O)C1=C(C)NC(C)=C(C(=O)OC2(C)CCN(CCCc3ccccc3)C2)[C@H]1c1cccc([N+](=O)[O-])c1 (stereo partly drawn) [Compound 21, (4S)-3-[3-methyl-1-(3-phenylpropyl)pyrrolidin-3-yl] 5-methyl 2,6-dimethyl-4-(3-nitrophenyl)-1,4-dihydropyridine-3,5-dicarboxylate] |  |  | 24 | 28 ± 12
 |  | COC(=O)C1=C(C)NC(C)=C(C(=O)OC2(C)CCN(Cc3cc(F)cc(F)c3)C2)[C@H]1c1cccc([N+](=O)[O-])c1 (stereo partly drawn) [Compound 23, (4S)-3-[1-(3,5-difluorobenzyl)-3-methylpyrrolidin-3-yl]5-methyl 2,6-dimethyl-4-(3-nitrophenyl)-1,4-dihydropyridine-3,5-dicarboxylate] |  |  | 24 | 60 ± 12
 |  | COC(=O)C1=C(C)NC(C)=C(C(=O)OC2(C)CCN(CCc3ccccc3)C2)[C@H]1c1cccc([N+](=O)[O-])c1 (stereo partly drawn) [Compound 22, (4S)-3-(3-methyl-1-phenylethylpyrrolidin-3-yl) 5-methyl 2,6-dimethyl-4-(3-nitrophenyl)-1,4-dihydropyridine-3,5-dicarboxylate] |  |  | 24 | 43 ± 7
 |  | COC(=O)C1=C(C)NC(C)=C(C(=O)OC2(C)CCN(CC(c3ccccc3)c3ccccc3)C2)[C@H]1c1cccc([N+](=O)[O-])c1 (stereo partly drawn) [Compound 18, (4S)-3-[1-(2,2-diphenylethyl)-3-methylpyrrolidin-3-yl] 5-methyl 2,6-dimethyl-4-(3-nitrophenyl)-1,4-dihydropyridine-3,5-dicarboxylate] |  |  | 24 | 69 ± 4
9.41 | 0.93 | COC(=O)C1=C(C)NC(C)=C(C(=O)O[C@]2(C)CCN(CCC(c3ccccc3)c3ccccc3)C2)[C@H]1c1cccc([N+](=O)[O-])c1 [Compound 17, (S)-3-[(R)-1-(3,3-diphenylpropyl)-3-methylpyrrolidin-3-yl] 5-methyl 2,6-dimethyl-4-(3-nitrophenyl)-1,4-dihydropyridine-3,5-dicarboxylate] | 57 ± 5 | 16 |  | 
 |  | CC1=C(C(=O)OCCN(Cc2ccccc2)c2ccccc2)C(c2cccc([N+](=O)[O-])c2)C(P2(=O)OCC(C)(C)CO2)=C(C)N1 (stereo not shown) [efonidipine, reference compound] |  |  | 10 | 69 ± 5
75.4 |  | COC(=O)C1=C(C)NC(C)=C(C(=O)O[C@]2(C)CCN(CC(c3ccccc3)c3ccccc3)C2)[C@H]1c1cccc([N+](=O)[O-])c1 [Compound 19, (S)-3-[(R)-1-(2,2-diphenylethyl)-3-methylpyrrolidin-3-yl] 5-methyl 2,6-dimethyl-4-(3-nitrophenyl)-1,4-dihydropyridine-3,5-dicarboxylate] |  |  | 24 | 72 ± 8

Source: patent publication US9198902B2, “1,4-dihydropyridine-3,5-dicarboxylate derivatives and preparation and use thereof” (Xuanzhu Pharma Co., Ltd., priority 2011, dated 2015)
